The text below walks through data of patent US20070021509A1, “Phosphate transport inhibitors” (priority 2001, published 2007).

As a reminder, the IC50 is the concentration needed to halve the response being measured.

One assay has as its system phosphate uptake by rabbit intestinal Brush Border Membrane Vesicles (BBMV). Put plainly: 33PO4 uptake in rabbit intestinal BBMV (HTS), phosphate transporter inhibition in vitro. Format: biochemical. To be noted: Table 1, phosphate uptake, read-out: IC50. As to the method:
The following example outlines the procedures required for in vitro measurement of the inhibition of phosphate uptake by rabbit intestinal Brush Border Membrane Vesicles (BBMV).
Rabbit Intestinal Brush Border Membrane Vesicles (BBMV) were isolated from mucosal scrapings of the upper small intestine (duodenum) of male New Zealand White rabbits. The scrapings were divided into 2 g aliquots in cryopreservation vials, frozen in liquid nitrogen, and stored at −80° C.
The following procedure was performed for each 2 g sample of BBMV mucosal scraping. Buffer volumes and container sizes were adjusted appropriately for the number of 2 g samples used. The entire preparation was performed on ice, unless otherwise stated.
Mucosal scrapings (2 g per tube) were thawed in a 37° C. water bath for 3 minutes and then placed on ice. The scrapings were suspended with a total of 7.5 ml of 300 MET, and transferred to a 250 mL Corning tube on ice. To the suspension was added 30 mL cold (4° C.) deionized water (dH20). The suspension was homogenized with a tissue homogenizer (Polytron) on high speed for 2 minutes. A stir bar and MgCl2 (81.3 mg) was added. The suspension was mixed well by inverting the closed tube. The suspension was stirred on ice, ensuring that a good vortex is achieved with the stir bar, for 40 minutes. The suspension was transferred to a chilled centrifuge tube and spun at 4000×g for 15 minutes. The supernatant was transferred to a new chilled centrifuge tube and spun at 32000×g for 30 minutes. The supernatant was discarded and the pellet was re-suspended with 34 mL cold 60 MET. The suspension was homogenized with a Dounce homogenizer with 8 strokes. The suspension was transferred to a fresh 250 mL Corning tube. A stir bar and 69.1 mg MgCl2 were added. The suspension was stirred well on ice for 10 minutes. The suspension was transferred to a chilled centrifuge tube and spun at 4000×g for 15 minutes. The supernatant was transferred to a new chilled centrifuge tube and spun at 32000×g for 30 minutes. The supernatant was discarded. At this stage, the preparation could be continued or this pellet (P4) could be frozen in liquid nitrogen and stored at −80° C. When needed, this pellet could be allowed to thaw at room temperature for 5 minutes. Continuing the preparation, the pellet was re-suspended with 34 mL cold 280 MH. The suspension was homogenized in a Dounce homogenize with 8 strokes. The suspension was transferred to a new chilled centrifuge tube and spun at 32000×g for 30 minutes. The supernatant was discarded. To the pellet was added 500 μL 280 MH and the pellet was re-suspended very carefully with a 1 mL tuberculin syringe with a 25-gauge needle with care not to create bubbles. Once the entire pellet was suspended, the suspension was transferred to a chilled 1.5 mL microfuge tube. The suspension was evenly dispersed by bringing the suspension up into the syringe through the 25-gauge needle, and back out again 8 times with care not to create bubbles. The total protein concentration was determined by performing a Bradford Protein Assay. Using that value, the BBMV were diluted with 280 MH to reach approximately 0.5-2.0 mg/mL. The solution was used as soon as possible for uptake studies.
The following experiment was performed using a Beckman Multimek 96-tip robotic pipettor. The following outlines the preparation required to screen one 96-well plate of compounds. However, multiple plates could be screened in one experiment.
To the “Uptake Buffers” was added ^33PO4 to reach 200,000 CPM/19 μL. The buffer solutions were stored at room temperature. The following control solutions were prepared and placed into appropriate wells of a polypropylene, 96-well V-bottom plate (“Hot Stock Plate”):
a. Maximum activity (MAX)−Na Uptake buffer+^33PO4 at 200,000 CPM/19 μL
b. Midline activity (MID)−MAX+100 μM KH2PO4, pH 7.4
c. Minimum activity (MIN)− K Uptake buffer+^33PO4 at 200,000 CPM/19 μL
Regarding `O=C(O)c1cc(Br)ccc1NS(=O)(=O)c1ccc(-c2ccccc2)cc1` [Compound 8], the IC50 is 51 to 100 µM. The same measure, in the same setting: as for `O=C(O)c1cc(Br)ccc1NS(=O)(=O)c1cccc([N+](=O)[O-])c1` [Compound 13], the figure is 101 to 500 µM. For the compound `O=C(O)c1cc(Br)ccc1NS(=O)(=O)c1cccc(F)c1` [Compound 34], the IC50 is 101 to 500 µM. For the compound `O=C(O)c1cc(Br)ccc1NS(=O)(=O)c1ccc(Cl)cc1` [Compound 27], the IC50 fell in the range of 101 to 500 µM. Same read-out and setting: as for `O=C(O)c1cc(Br)ccc1NS(=O)(=O)c1cccc(C(F)(F)F)c1` [Compound 16], the figure is 101 to 500 µM; as for `O=C(O)c1cc(Br)ccc1NS(=O)(=O)c1ccccc1Cl` [Compound 31], 101 to 500 µM; as for `O=C(O)c1cc(Br)ccc1NS(=O)(=O)c1ccc([N+](=O)[O-])cc1` [Compound 5], 51 to 100 µM.

The same assay, now with this note: Table 2, phosphate uptake, read-out: IC50.
As to `O=C(Nc1ccccc1F)c1cc(Br)ccc1NS(=O)(=O)c1ccc(Cl)c([N+](=O)[O-])c1` [Compound 124], the IC50 is over 1500 µM.

Consider `Cc1ccccc1NC(=O)c1cc(Br)ccc1NS(=O)(=O)c1ccc(Cl)cc1` [Compound 94], for which the half-maximal inhibitory concentration (IC50) is over 1500 µM. The same measure, in the same setting: with `O=C(NC1CCCc2ccccc21)c1cc(Br)ccc1NS(=O)(=O)c1ccc(OC(F)(F)F)cc1` (stereo not shown) [Compound 76] the figure was 101 to 500 µM.

Take `O=C(Nc1cc(Cl)ccc1Cl)c1cc(Br)ccc1NS(=O)(=O)c1ccc(Cl)c([N+](=O)[O-])c1` [Compound 111]: the IC50 is under 50 µM. On the same count and under the same terms, with `O=C(Nc1cc(Cl)ccc1Cl)c1cc(Br)ccc1NS(=O)(=O)c1ccc(OC(F)(F)F)cc1` [Compound 80] the figure was 501 to 1000 µM; with `COc1ccc(S(=O)(=O)Nc2ccc(Br)cc2C(=O)Nc2ccc(Cl)cc2Cl)cc1[N+](=O)[O-]` [Compound 104], 51 to 100 µM. On the same count and under the same terms, as for `O=C(Nc1cccc(Cl)c1)c1cc(Br)ccc1NS(=O)(=O)c1ccc(Cl)c([N+](=O)[O-])c1` [Compound 123], the figure is over 1500 µM; as for `COc1ccc(S(=O)(=O)Nc2ccc(Br)cc2C(=O)Nc2ccccc2C)cc1[N+](=O)[O-]` [Compound 108], 101 to 500 µM. Same read-out and setting: as for `O=C(Nc1cccc(Br)c1)c1cc(Br)ccc1NS(=O)(=O)c1ccc(Cl)c([N+](=O)[O-])c1` [Compound 116], the figure is 101 to 500 µM; as for `O=C(NCc1ccc(F)cc1)c1cc(Br)ccc1NS(=O)(=O)c1ccc(OC(F)(F)F)cc1` [Compound 52], under 50 µM. As for `COc1ccccc1NC(=O)c1cc(Br)ccc1NS(=O)(=O)c1ccc(Cl)cc1` [Compound 89], the 50% inhibitory concentration (IC50) was in the range of 101 to 500 µM.

The same assay, now with this note: Table 3, 100 μM compound.
For `C[S+]([O-])c1ccc2c(c1)CCN2S(=O)(=O)c1cccc(C(F)(F)F)c1` (stereo not shown) [Compound 157], the “% Inhib. At 100 μM” value is recorded as 37%. Same read-out and setting: as for `Cc1ccc(CNS(=O)(=O)c2ccc(OC(F)(F)F)cc2)cc1` [Compound 163], the figure is 26%; as for `O=S(=O)(Nc1ccccc1)c1ccccc1` [Compound 159], 36%; as for `Cc1cc(C)c(S(=O)(=O)n2cc(/C=C/C(=O)O)c3ccccc32)c(C)c1` [Compound 144], 64%. The same measure, in the same setting: with `COc1ccc(NC(=O)c2cc(Br)ccc2NS(=O)(=O)c2ccc(OC(F)(F)F)cc2)c([N+](=O)[O-])c1` [Compound 175] the figure was 78%; with `O=S(=O)(Nc1ccc(C(F)(F)F)cc1)c1ccc(NS(=O)(=O)c2ccc(C(F)(F)F)cc2)cc1` [Compound 131], 80%; with `CC(=O)Nc1ccc(S(=O)(=O)N2CCCc3ccccc32)cc1` [Compound 158], 37%. Still for that read-out and setting: with `O=S(=O)(NCc1ccc(F)cc1F)c1ccc(OC(F)(F)F)cc1` [Compound 153] the figure was 53%; with `CC(C)(C)c1ccc(NS(=O)(=O)c2ccc(OC(F)(F)F)cc2)cc1` [Compound 138], 71%.

Still in this assay, the particulars now being: Table 4, phosphate uptake, read-out: IC50.
Regarding `CC(C)c1cccc(C(C)C)c1NC(=O)Nc1ccc(Br)cc1P(=O)(O)O` [Compound 191], the IC50 is 101 to 500 µM. On the same count and under the same terms, with `O=C(Nc1cccc(C(F)(F)F)c1)Nc1ccc(Br)cc1P(=O)(O)O` [Compound 178] the figure was under 50 µM; with `O=C(Nc1ccc(Br)cc1P(=O)(O)O)Nc1cccc2ccccc12` [Compound 183], 51 to 100 µM.

Turning to `O=C(Nc1ccc(Br)cc1P(=O)(O)O)Nc1cccc(Cl)c1Cl` [Compound 187], the IC50 fell in the range of 101 to 500 µM.

In the case of `O=C(Nc1ccc(Cl)cc1)Nc1ccc(Br)cc1P(=O)(O)O` [Compound 213], the IC50 is over 1500 µM. Same read-out and setting: as for `O=C(Nc1ccc(F)c(C(F)(F)F)c1)Nc1ccc(Br)cc1P(=O)(O)O` [Compound 188], the figure is 101 to 500 µM; as for `O=C(Nc1cc(C(F)(F)F)cc(C(F)(F)F)c1)Nc1ccc(Br)cc1P(=O)(O)O` [Compound 182], 51 to 100 µM.

Still in this assay, the particulars now being: Table 5, 100 μM compound.
Consider `O=C(Nc1cccc(C(F)(F)F)c1)Nc1ccc(Cl)c(Cl)c1` [Compound 216], for which the “% Inhib. at 100 μM” value is reported as 95%. As to `O=C(Nc1cccc(C(F)(F)F)c1)N1CCc2ccccc21` [Compound 225], the “% Inhib. at 100 μM” value is on record as 80%.

The assay is the same for the next values; noted with them: Table 6, 100 μM compound.
Regarding `COc1ccc(C2=NOC(c3ccco3)C2)cc1` (stereo not shown) [Compound 237], the “% Inhib. at 100 μM” value turned out to be 40%.

Staying with this assay, now noted: Table 8, 100 μM compound.
As to `CCOP(=O)(OCC)c1cc(Br)ccc1NC(=O)c1ccc(OC)c(OC)c1` [Compound 248], the “% Inhib. at 100 μM” value was determined as 48%.

On to `CCCCOc1ccc(C(=O)Nc2ccc(Br)cc2P(=O)(OCC)OCC)cc1` [Compound 246], for which the “% Inhib. at 100 μM” value was 57%. On to `CCOP(=O)(OCC)c1cc(Br)ccc1NC(=O)c1ccc(Br)cc1` [Compound 245], for which the “% Inhib. at 100 μM” value turned out to be 67%.

The assay is the same for the next values; noted with them: Table 10, phosphate uptake, read-out: IC50.
For the compound `O=C(Nc1ccc(Cl)cc1)c1cc(Br)cc(Br)c1O` [Compound 255], the IC50 lay in the range of 101 to 500 µM. Same read-out and setting: with `O=C(Nc1ccc(Br)cc1)c1cc(Br)cc(Br)c1O` [Compound 251] the figure was 51 to 100 µM. Still for that read-out and setting: as for `O=C(Nc1ccc(Br)cc1)c1cc(Br)cc(Br)c1OCCP(=O)(O)O` [Compound 263], the figure is 101 to 500 µM. On the same count and under the same terms, as for `CCOP(=O)(OCC)c1cc(Br)ccc1NC(=O)c1cccc2ccccc12` [Compound 265], the figure is 501 to 1000 µM; as for `CCOP(=O)(OCC)c1cc(Br)ccc1NC(=O)c1c(Cl)cc(Cl)cc1Cl` [Compound 270], over 1500 µM.

Still in this assay, the particulars now being: Table 11, phosphate uptake, read-out: IC50.
Take `O=C(CCc1ccc(O)cc1)c1c(O)cc(O)cc1O` [Compound 273]: the IC50 was 501 to 1000 µM.

Still in this assay, the particulars now being: Table 12, 100 μM compound.
`O=S(=O)(Cc1c(F)cccc1Cl)c1ccc(Cl)cc1` [Compound 286]: the “% Inhib. at 100 μM” value came to 39%. `Cc1cc(S(=O)(=O)Cc2ccc(Cl)c(Cl)c2)c(Cl)cc1Cl` [Compound 284]: the “% Inhib. at 100 μM” value came out at 51%.

The same assay, now with this note: Table 13, phosphate uptake, read-out: IC50.
`Cc1ccc(S(=O)(=O)Nc2ccc(/C=C/c3ccc(NS(=O)(=O)c4ccc(C)c([N+](=O)[O-])c4)cc3S(=O)(=O)O)c(S(=O)(=O)O)c2)cc1[N+](=O)[O-]` [Compound 309]: the IC50 is over 1500 µM. On the same count and under the same terms, as for `O=S(=O)(O)c1cc(/N=N/c2ccc(O)cc2)ccc1/C=C/c1ccc(/N=N/c2ccc(O)cc2)cc1S(=O)(=O)O` [Compound 292], the figure is under 50 µM. Turning to `Oc1ccc(/C=C/c2ccc(O)cc2)cc1` [Compound 306], the IC50 is over 1500 µM. `O=[N+]([O-])c1ccc(S(=O)(=O)Nc2ccc(/C=C/c3ccc(NS(=O)(=O)c4ccc([N+](=O)[O-])cc4)cc3S(=O)(=O)O)c(S(=O)(=O)O)c2)cc1` [Compound 303]: the concentration for half-maximal inhibition (IC50) lay within 501 to 1000 µM.
